In the test the test system is CbTA (ω-transaminase from Chloroflexi bacterium). Nature of the test: HPLC initial rate, Michaelis-Menten nonlinear fit. The class given is biochemical, Chloroflexota bacterium. As to conditions: 0.02 mM PLP, glycine-NaOH pH 8.5, 45 °C.

As for `C[C@@H](N)c1ccccc1` [(R)-MBA], under “20 mM pyruvate co-substrate”, the Km was 14.7 mM.

With `CC(=O)C(=O)O` [C1, pyruvate], the Michaelis-Menten constant (Km) (20 mM (R)-MBA co-substrate) was 2.83 mM.

The values are drawn from publication PMC8264935 (ACS Omega, 2021).
